In paper PMC3691235, “Discovery of a Novel Dual Fungal CYP51/Human 5-Lipoxygenase Inhibitor: Implications for Anti-Fungal Therapy” (PLoS ONE, 2013):
Read-outs that look alike come from different tables or passages of the source.

How the values were obtained:
[1] = target: T1, Human leukocyte 5-lipoxygenase (Homo sapiens, UniProt P09917); test: Lipoxygenase UV-based inhibitor assay, 5-LOX; format: biochemical
T1 construct: made in house
T1 sequence (P09917 1-674): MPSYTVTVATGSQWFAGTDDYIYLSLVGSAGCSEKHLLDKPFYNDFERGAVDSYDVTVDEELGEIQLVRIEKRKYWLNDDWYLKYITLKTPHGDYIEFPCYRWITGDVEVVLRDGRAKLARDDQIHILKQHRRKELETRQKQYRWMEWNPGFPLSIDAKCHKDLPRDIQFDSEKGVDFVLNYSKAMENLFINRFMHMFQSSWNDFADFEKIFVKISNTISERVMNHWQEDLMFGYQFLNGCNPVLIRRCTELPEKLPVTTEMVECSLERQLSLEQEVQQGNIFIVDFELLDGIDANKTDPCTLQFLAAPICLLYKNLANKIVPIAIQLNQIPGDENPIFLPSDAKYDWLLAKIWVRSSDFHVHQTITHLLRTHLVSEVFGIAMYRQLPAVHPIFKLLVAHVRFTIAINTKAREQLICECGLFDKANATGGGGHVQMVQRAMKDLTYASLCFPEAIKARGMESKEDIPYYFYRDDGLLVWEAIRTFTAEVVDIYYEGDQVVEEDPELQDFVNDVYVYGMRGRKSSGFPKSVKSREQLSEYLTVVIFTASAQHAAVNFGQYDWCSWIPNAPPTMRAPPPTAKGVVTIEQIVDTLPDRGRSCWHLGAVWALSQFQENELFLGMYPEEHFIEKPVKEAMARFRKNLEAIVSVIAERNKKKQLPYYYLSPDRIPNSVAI
Protocol: (§1) Human leukocyte 5-lipoxygenase was expressed as a non-tagged protein and used as a crude ammonium sulfate protein fraction, as published previously.
(§2) Inhibitor potencies were evaluated through use of the standard UV-based inhibitor assay. The initial rates were determined by following the formation of the conjugated diene product at 234 nm (ε = 25,000 M^−1 cm^−1) with a Perkin-Elmer Lambda 40 UV/Vis spectrophotometer at one substrate concentration and varying inhibitor concentrations. All reactions were 2 mL in volume and constantly stirred using a magnetic stir bar at room temperature (23°C), with the enzyme specific buffer conditions outlined in Table 1. The substrate used for the various isozymes was arachidonic acid (AA) for 5-LOX, 12-LOX, and 15-LOX-2 and linoleic acid (LA) for 15-LOX-1, where concentrations were quantitatively determined by allowing the enzymatic reaction to go to completion. IC50 values were obtained by determining the initial rate at various inhibitor concentrations and plotting them against inhibitor concentration, followed by a hyperbolic saturation curve fit. The data used for the saturation curves were performed in duplicate or triplicate, depending on the quality of the data. […] Inhibitors were stored at −20°C in DMSO. […] The solvent isotope effect of the inhibitor IC50 was investigated utilizing the same conditions and methods as stated above. The pH of the buffered D2O was determined as reported previously.

[2] = target: T2, human prostate epithelial 15-lipoxygenase-2 (15-LOX-2) (Homo sapiens, UniProt O15296); test: Lipoxygenase UV-based inhibitor assay, 15-LOX-2; format: biochemical; settings: 30 µM AA, pH 7.5
T2 construct: His6 (N); made in house
T2 sequence (O15296 1-676): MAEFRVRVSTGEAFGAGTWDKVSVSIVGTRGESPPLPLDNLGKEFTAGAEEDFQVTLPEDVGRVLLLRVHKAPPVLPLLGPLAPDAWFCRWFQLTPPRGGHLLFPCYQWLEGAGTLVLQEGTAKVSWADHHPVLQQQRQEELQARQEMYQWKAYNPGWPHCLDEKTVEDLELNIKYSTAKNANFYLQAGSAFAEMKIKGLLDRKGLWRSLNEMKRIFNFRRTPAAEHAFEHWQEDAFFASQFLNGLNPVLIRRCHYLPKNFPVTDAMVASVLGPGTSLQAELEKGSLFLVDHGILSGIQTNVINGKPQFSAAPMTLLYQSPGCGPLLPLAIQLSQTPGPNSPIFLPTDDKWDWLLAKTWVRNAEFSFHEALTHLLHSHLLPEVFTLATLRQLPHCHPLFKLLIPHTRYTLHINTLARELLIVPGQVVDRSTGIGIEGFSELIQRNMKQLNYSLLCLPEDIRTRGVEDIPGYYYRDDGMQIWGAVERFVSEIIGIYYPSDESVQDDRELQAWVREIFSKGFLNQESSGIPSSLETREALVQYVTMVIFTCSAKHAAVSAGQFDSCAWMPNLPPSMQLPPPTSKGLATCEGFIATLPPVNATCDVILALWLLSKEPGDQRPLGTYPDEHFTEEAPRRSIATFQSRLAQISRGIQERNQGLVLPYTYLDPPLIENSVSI
Protocol: as §1, §2

[3] = system: LTB4 synthesis in whole human blood; test: Human blood LTB4 inhibition assay; format: cell-based; settings: for inhibition at 10 µM: Homo sapiens, compounds at 10 µM, calcium ionophore stimulated, ELISA, error in parentheses
Protocol: Whole human blood was obtained from healthy volunteers from within the Student Health Center. These studies were approved by the UCSC Institutional Review Board (IRB) and informed consent was obtained from all donors before blood draw. The whole blood was dispensed in 150 µL samples followed by addition of inhibitor or control (vehicle, DMSO), and incubated for 15 min at 37°C. The mixture was then stimulated by introduction of the calcium ionophore, […], (freshly diluted from a 50 mM DMSO stock to 1.5 mM in Hanks balanced salt solution), and incubated for 30 min at 37°C. Samples were then centrifuged at 1,500 rpm (300 g) for 10 min at 4°C and the supernatant diluted between 20 and 50-fold (batch dependent) for LTB4 detection, using an ELISA detection kit (Cayman Chemicals Inc.).

5-LOX = target: T3, 5-LOX (Homo sapiens, UniProt P09917); test: Pseudoperoxidase activity assay; format: biochemical; settings: 10 µM inhibitor, 10 µM 13-HPODE, positive = loss of greater than 40% of product absorption at 234 nm
T3 construct: made in house
T3 sequence (P09917 1-674): T1 sequence (P09917 1-674)
Protocol: The reductive properties of the inhibitors were determined by monitoring the pseudoperoxidase activity of lipoxygenase in the presence of the inhibitor and 13-(S)-hydroperoxyoctadecadienoic acid (13-HPODE). Activity is monitored by direct measurement of the product degradation following the decrease of absorbance at 234 nm using a Perkin-Elmer Lambda 40 UV/Vis spectrometer (50 mM Sodium Phosphate (pH 7.4), 0.3 mM CaCl2, 0.1 mM EDTA, 0.01% Triton X100, 10 µM 13-HPODE). All reactions were performed in 2 mL of buffer and constantly stirred with a rotating stir bar (23°C). Reaction was initiated by addition of 10 µM inhibitor (a 1 to 1 ratio to 13-HPODE), and a positive result for activity reflected a loss of greater than 40% of product absorption at 234 nm.

[4] = UV-based assay, 10 µM AA, pH 7.3, crude enzyme, error = SD, read-out: 5-LOX IC50
[5] = UV-based assay, read-out: 5-LOX IC50

SMILES | IC50 [1, 4] [µM] | IC50 [2] [µM] | Reductive activity (pseudoperoxidase activity) (5-LOX) | increase in 5-LOX IC50 in D2O relative to H2O (solvent isotope effect) ([1]; D2O buffer vs H2O) [fold] | selectivity for 5-LOX over 12-LOX, 15-LOX-1, 15-LOX-2, COX-1 and COX-2 [1] | IC50 [1, 5] [µM] | Reductive activity (pseudoperoxidase activity) (5-LOX; listed as Setileuton) | inhibition at 10 µM [3] [%] | greater potency than ketoconazole in whole blood ([3]; whole human blood) [fold] | IC50 [1] [µM]
Cc1cc(C2CCCCC2)n(O)c(=O)c1 [ciclopirox, reference compound] | 11 ± 1 | – | – | – | – | – | – | 34 | – | –
CC(=O)N1CCN(c2ccc(NCC3COC(Cn4ccnc4)(c4ccc(Cl)cc4Cl)O3)cc2)CC1 (stereo not shown) [ketaminazole (16), ketaminazole] | 0.7 | > 150 | reductive inhibitor and Yes | – | over 100 times | 0.7 | – | 45 | 2 | –
CC(=O)N1CCN(c2ccc(OCC3COC(Cn4ccnc4)(c4ccc(Cl)cc4Cl)O3)cc2)CC1 (stereo not shown) [ketoconazole, reference compound] | – | > 150 | No | – | – | – | – | 25 | – | > 50
CC[C@](O)(c1nnc(NCc2ccc3c(-c4ccc(F)cc4)cc(=O)oc3c2)o1)C(F)(F)F [setileuton, reference compound] | – | > 150 | non-reductive | – | – | 0.06 ± 0.006 | No | 100 | – | –

Second part, led by results:

IC50 [1, 4] [µM] | IC50 [2] [µM] | Reductive activity (pseudoperoxidase activity) (5-LOX) | increase in 5-LOX IC50 in D2O relative to H2O (solvent isotope effect) ([1]; D2O buffer vs H2O) [fold] | selectivity for 5-LOX over 12-LOX, 15-LOX-1, 15-LOX-2, COX-1 and COX-2 [1] | IC50 [1, 5] [µM] | Reductive activity (pseudoperoxidase activity) (5-LOX; listed as Setileuton) | SMILES | inhibition at 10 µM [3] [%] | greater potency than ketoconazole in whole blood ([3]; whole human blood) [fold] | IC50 [1] [µM]
0.17 | > 150 | Yes | – | – | – | – | CC(C)(C)OC(=O)N1CCN(c2ccc(NCc3ccc(-c4ccc(C#N)cc4)o3)cc2)CC1 [Compound 1] | ~50 | – | –
0.52 | > 50 | – | 2.4 | – | – | – | CC(=O)N1CCN(c2ccc(NCc3ccc(-c4cccc(Cl)c4)o3)cc2)CC1 [Compound 13] | ~50 | – | –
0.33 | 10 | – | – | – | – | – | N#Cc1ccc(-c2ccc(CNc3ccc(N4CCCCC4)cc3)o2)cc1 [Compound 14] | – | – | –
